Assay results from patent US12427157B2, “Methods for treatment of diseases involving acidic or hypoxic diseased tissues” (Cybrexa 1, Inc., priority 2018, dated 2025).
Residues, ends and D or L forms follow the SMILES beside them. *: point of attachment. X6 = CNCc1ccc(-c2c3c4c(cc(F)cc4n2[C@@H](CC(C)C)NC(=O)OCCS*)C(=O)NCC3)cc1; X26 = C[C@H](COC(=O)N1CCC[C@@H](c2ccc(-n3cc4cccc(C(N)=O)c4n3)cc2)C1)S*; X20 = C[C@]12CCCN1C1=NNC(=O)c3cc(F)cc4c3c1c(n4CNC(=O)OCCS*)C2

Biological target: PARP (Homo sapiens, UniProt P09874)
Assay: Enzymatic Assay 2: HT Universal Chemiluminescent PARP Assay of cleaved compounds;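 further: PARP reaction with activated DNA run 1 h at room temperature, product detected via streptavidin-HRP and luminescence endpoint reading on a plate reader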
Conditions: read-out: IC50 Enzymatic Assay 2; Examples cleaved per Example A (crude cleavage solution); R^8H starting materials as such
Method: An equal volume of 1×PARP cocktail containing activated DNA was added to each well and the reaction was incubated for one hour at room temperature. The wells were washed twice with 1×PBS+0.1% Triton X-100 and twice with PBS. 50 ul/well of diluted streptavidin-HRP was added and the wells were incubated for one hour at room temperature. The wells were washed twice with 1×PBS+0.1% Triton X-100 and washed twice with PBS. The liquid was 5 removed, 100 ul/well 1:1 PeroxyGlow A/PeroxyGlow B was added and the chemiluminescent readings were measured on a BioTek Cytation 5 plate reader using the luminescence fiber endpoint.

Sequence of PARP (P09874 whole entry): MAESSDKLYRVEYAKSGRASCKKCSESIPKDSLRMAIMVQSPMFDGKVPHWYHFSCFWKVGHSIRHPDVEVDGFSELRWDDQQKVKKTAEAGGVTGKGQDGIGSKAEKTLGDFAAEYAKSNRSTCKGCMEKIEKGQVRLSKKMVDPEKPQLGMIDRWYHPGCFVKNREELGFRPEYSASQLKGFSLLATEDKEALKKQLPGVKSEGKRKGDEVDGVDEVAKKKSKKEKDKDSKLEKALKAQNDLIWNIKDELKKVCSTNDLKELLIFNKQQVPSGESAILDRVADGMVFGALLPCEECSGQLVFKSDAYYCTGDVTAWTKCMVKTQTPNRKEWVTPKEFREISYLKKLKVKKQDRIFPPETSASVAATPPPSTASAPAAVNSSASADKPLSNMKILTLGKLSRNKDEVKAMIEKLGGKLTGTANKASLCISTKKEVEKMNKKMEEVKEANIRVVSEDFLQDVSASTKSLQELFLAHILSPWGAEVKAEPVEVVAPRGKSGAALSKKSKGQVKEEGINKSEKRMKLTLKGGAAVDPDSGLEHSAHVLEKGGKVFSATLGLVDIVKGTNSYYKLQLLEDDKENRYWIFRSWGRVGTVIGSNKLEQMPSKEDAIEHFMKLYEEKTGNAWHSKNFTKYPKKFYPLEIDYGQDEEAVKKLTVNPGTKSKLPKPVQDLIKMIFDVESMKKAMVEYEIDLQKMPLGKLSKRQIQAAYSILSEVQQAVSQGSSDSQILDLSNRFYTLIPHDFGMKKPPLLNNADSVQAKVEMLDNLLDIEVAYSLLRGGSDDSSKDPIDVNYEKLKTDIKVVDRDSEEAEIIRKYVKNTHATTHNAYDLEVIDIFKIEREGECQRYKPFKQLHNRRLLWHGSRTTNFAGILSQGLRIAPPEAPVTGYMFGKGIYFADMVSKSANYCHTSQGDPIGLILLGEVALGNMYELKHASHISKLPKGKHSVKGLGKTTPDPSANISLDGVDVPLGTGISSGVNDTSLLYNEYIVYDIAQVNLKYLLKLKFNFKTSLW

SMILES | IC50
CC[C@H](C)[C@H](NC(=O)[C@@H]1CCCN1C(=O)[C@H](CC(N)=O)NC(=O)[C@H](CCC(N)=O)NC(=O)[C@H](CCC(=O)O)NC(=O)[C@H](C)N)C(=O)N[C@@H](Cc1ccc(O)cc1)C(=O)N[C@@H](Cc1c[nH]c2ccccc12)C(=O)N[C@@H](C)C(=O)N[C@@H](CCCNC(=N)N)C(=O)N[C@@H](Cc1ccc(O)cc1)C(=O)N[C@@H](C)C(=O)N[C@@H](CC(=O)O)C(=O)N[C@@H](Cc1c[nH]c2ccccc12)C(=O)N[C@@H](CC(C)C)C(=O)N[C@@H](Cc1ccccc1)C(=O)N[C@H](C(=O)N[C@H](C(=O)N1CCC[C@H]1C(=O)N[C@@H](CC(C)C)C(=O)N[C@@H](CC(C)C)C(=O)N[C@@H](CC(C)C)C(=O)N[C@@H](CC(C)C)C(=O)N[C@@H](CC(=O)O)C(=O)N[C@@H](CC(C)C)C(=O)N[C@@H](C)C(=O)N[C@@H](CC(C)C)C(=O)N[C@@H](CC(C)C)C(=O)N[C@H](C(=O)N[C@@H](CC(=O)O)C(=O)N[C@@H](C)C(=O)N[C@@H](CC(=O)O)C(=O)N[C@@H](CCC(=O)O)C(=O)N[C@@H](CSSCCOC(=O)N[C@H](CC(C)C)n1c(-c2ccc(CNC)cc2)c2c3c(cc(F)cc31)C(=O)NCC2)C(=O)NCC(=O)O)C(C)C)[C@@H](C)O)[C@@H](C)O [Example 35] (H-AEQNPIYWARYADWLFTTPLLLLDLALLVDADEC(X6)G-OH; N-terminus and C-terminus assumed) | 3.1 nM
CC(C)C[C@H](NC(=O)[C@H](Cc1ccc(O)cc1)NC(=O)[C@H](C)NC(=O)[C@H](CCCNC(=N)N)NC(=O)[C@H](Cc1c[nH]c2ccccc12)NC(=O)[C@@H]1CCCN1C(=O)[C@H](CC(N)=O)NC(=O)[C@H](CCC(N)=O)NC(=O)[C@H](CC(=O)O)NC(=O)[C@H](CC(=O)O)NC(=O)[C@H](C)N)C(=O)N[C@@H](CC(=O)O)C(=O)N[C@@H](CC(C)C)C(=O)N[C@@H](CC(C)C)C(=O)N[C@@H](Cc1ccccc1)C(=O)N1CCC[C@H]1C(=O)N[C@H](C(=O)N[C@@H](CC(=O)O)C(=O)N[C@H](C(=O)N[C@@H](CC(C)C)C(=O)N[C@@H](CC(C)C)C(=O)N[C@@H](CC(C)C)C(=O)N[C@@H](CC(=O)O)C(=O)N[C@@H](CC(C)C)C(=O)N[C@@H](CC(C)C)C(=O)N[C@@H](Cc1c[nH]c2ccccc12)C(=O)N[C@@H](CSSc1ccc(COC(=O)N(C)Cc2ccc(-c3[nH]c4cc(F)cc5c4c3CCNC5=O)cc2)cc1)C(=O)NCC(=O)O)[C@@H](C)O)[C@@H](C)O [Example 36] | 2.2 nM
CC(C)C[C@H](NC(=O)[C@H](Cc1ccc(O)cc1)NC(=O)[C@H](C)NC(=O)[C@H](CCCNC(=N)N)NC(=O)[C@H](Cc1c[nH]c2ccccc12)NC(=O)[C@@H]1CCCN1C(=O)[C@H](CC(N)=O)NC(=O)[C@H](CCC(N)=O)NC(=O)[C@H](CC(=O)O)NC(=O)[C@H](CC(=O)O)NC(=O)[C@H](C)N)C(=O)N[C@@H](CC(=O)O)C(=O)N[C@@H](CC(C)C)C(=O)N[C@@H](CC(C)C)C(=O)N[C@@H](Cc1ccccc1)C(=O)N1CCC[C@H]1C(=O)N[C@H](C(=O)N[C@@H](CC(=O)O)C(=O)N[C@H](C(=O)N[C@@H](CC(C)C)C(=O)N[C@@H](CC(C)C)C(=O)N[C@@H](CC(C)C)C(=O)N[C@@H](CC(=O)O)C(=O)N[C@@H](CC(C)C)C(=O)N[C@@H](CC(C)C)C(=O)N[C@@H](Cc1c[nH]c2ccccc12)C(=O)N[C@@H](CC(=O)O)C(=O)N[C@@H](C)C(=O)N[C@@H](CC(=O)O)C(=O)N[C@@H](CCC(=O)O)C(=O)N[C@@H](CSSc1ccc(COC(=O)N(C)Cc2ccc(-c3[nH]c4cc(F)cc5c4c3CCNC5=O)cc2)cc1)C(=O)NCC(=O)O)[C@@H](C)O)[C@@H](C)O [Example 37] | 3.1 nM
CC[C@H](C)[C@H](NC(=O)[C@@H]1CCCN1C(=O)[C@H](CC(N)=O)NC(=O)[C@H](CCC(N)=O)NC(=O)[C@H](CCC(=O)O)NC(=O)[C@H](C)N)C(=O)N[C@@H](Cc1ccc(O)cc1)C(=O)N[C@@H](Cc1c[nH]c2ccccc12)C(=O)N[C@@H](C)C(=O)N[C@@H](CCCNC(=N)N)C(=O)N[C@@H](Cc1ccc(O)cc1)C(=O)N[C@@H](C)C(=O)N[C@@H](CC(=O)O)C(=O)N[C@@H](Cc1c[nH]c2ccccc12)C(=O)N[C@@H](CC(C)C)C(=O)N[C@@H](Cc1ccccc1)C(=O)N[C@H](C(=O)N[C@H](C(=O)N1CCC[C@H]1C(=O)N[C@@H](CC(C)C)C(=O)N[C@@H](CC(C)C)C(=O)N[C@@H](CC(C)C)C(=O)N[C@@H](CC(C)C)C(=O)N[C@@H](CC(=O)O)C(=O)N[C@@H](CC(C)C)C(=O)N[C@@H](C)C(=O)N[C@@H](CC(C)C)C(=O)N[C@@H](CC(C)C)C(=O)N[C@H](C(=O)N[C@@H](CC(=O)O)C(=O)N[C@@H](C)C(=O)N[C@@H](CC(=O)O)C(=O)N[C@@H](CCC(=O)O)C(=O)N[C@@H](CSSCCOC(=O)NCn1c2c3c4c(cc(F)cc41)C(=O)NN=C3N1CCC[C@]1(C)C2)C(=O)NCC(=O)O)C(C)C)[C@@H](C)O)[C@@H](C)O [Example 38] (H-AEQNPIYWARYADWLFTTPLLLLDLALLVDADEC(X20)G-OH; N-terminus and C-terminus assumed) | 2.8 nM
CC(C)C[C@H](NC(=O)[C@H](Cc1ccc(O)cc1)NC(=O)[C@H](C)NC(=O)[C@H](CCCNC(=N)N)NC(=O)[C@H](Cc1c[nH]c2ccccc12)NC(=O)[C@@H]1CCCN1C(=O)[C@H](CC(N)=O)NC(=O)[C@H](CCC(N)=O)NC(=O)[C@H](CC(=O)O)NC(=O)[C@H](CC(=O)O)NC(=O)[C@H](C)N)C(=O)N[C@@H](CC(=O)O)C(=O)N[C@@H](CC(C)C)C(=O)N[C@@H](CC(C)C)C(=O)N[C@@H](Cc1ccccc1)C(=O)N1CCC[C@H]1C(=O)N[C@H](C(=O)N[C@@H](CC(=O)O)C(=O)N[C@H](C(=O)N[C@@H](CC(C)C)C(=O)N[C@@H](CC(C)C)C(=O)N[C@@H](CC(C)C)C(=O)N[C@@H](CC(=O)O)C(=O)N[C@@H](CC(C)C)C(=O)N[C@@H](CC(C)C)C(=O)N[C@@H](Cc1c[nH]c2ccccc12)C(=O)N[C@@H](CSSC1(COC(=O)N(C)Cc2ccc(-c3[nH]c4cc(F)cc5c4c3CCNC5=O)cc2)CCC1)C(=O)NCC(=O)O)[C@@H](C)O)[C@@H](C)O [Example 44] | 1.5 nM
CC(C)C[C@H](NC(=O)[C@H](Cc1ccc(O)cc1)NC(=O)[C@H](C)NC(=O)[C@H](CCCNC(=N)N)NC(=O)[C@H](Cc1c[nH]c2ccccc12)NC(=O)[C@@H]1CCCN1C(=O)[C@H](CC(N)=O)NC(=O)[C@H](CCC(N)=O)NC(=O)[C@H](CC(=O)O)NC(=O)[C@H](CC(=O)O)NC(=O)[C@H](C)N)C(=O)N[C@@H](CC(=O)O)C(=O)N[C@@H](CC(C)C)C(=O)N[C@@H](CC(C)C)C(=O)N[C@@H](Cc1ccccc1)C(=O)N1CCC[C@H]1C(=O)N[C@H](C(=O)N[C@@H](CC(=O)O)C(=O)N[C@H](C(=O)N[C@@H](CC(C)C)C(=O)N[C@@H](CC(C)C)C(=O)N[C@@H](CC(C)C)C(=O)N[C@@H](CC(=O)O)C(=O)N[C@@H](CC(C)C)C(=O)N[C@@H](CC(C)C)C(=O)N[C@@H](Cc1c[nH]c2ccccc12)C(=O)N[C@@H](CC(=O)O)C(=O)N[C@@H](C)C(=O)N[C@@H](CC(=O)O)C(=O)N[C@@H](CCC(=O)O)C(=O)N[C@@H](CSS[C@H](C)COC(=O)N1CCC[C@@H](c2ccc(-n3cc4cccc(C(N)=O)c4n3)cc2)C1)C(=O)NCC(=O)O)[C@@H](C)O)[C@@H](C)O [Example 45] | 3.2 nM
CC(C)C[C@H](NC(=O)[C@H](Cc1ccc(O)cc1)NC(=O)[C@H](C)NC(=O)[C@H](CCCNC(=N)N)NC(=O)[C@H](Cc1c[nH]c2ccccc12)NC(=O)[C@@H]1CCCN1C(=O)[C@H](CC(N)=O)NC(=O)[C@H](CCC(N)=O)NC(=O)[C@H](CC(=O)O)NC(=O)[C@H](CC(=O)O)NC(=O)[C@H](C)N)C(=O)N[C@@H](CC(=O)O)C(=O)N[C@@H](CC(C)C)C(=O)N[C@@H](CC(C)C)C(=O)N[C@@H](Cc1ccccc1)C(=O)N1CCC[C@H]1C(=O)N[C@H](C(=O)N[C@@H](CC(=O)O)C(=O)N[C@H](C(=O)N[C@@H](CC(C)C)C(=O)N[C@@H](CC(C)C)C(=O)N[C@@H](CC(C)C)C(=O)N[C@@H](CC(=O)O)C(=O)N[C@@H](CC(C)C)C(=O)N[C@@H](CC(C)C)C(=O)N[C@@H](Cc1c[nH]c2ccccc12)C(=O)N[C@@H](CC(=O)O)C(=O)N[C@@H](C)C(=O)N[C@@H](CC(=O)O)C(=O)N[C@@H](CCC(=O)O)C(=O)N[C@@H](CSS[C@@H](C)COC(=O)N1CCC[C@@H](c2ccc(-n3cc4cccc(C(N)=O)c4n3)cc2)C1)C(=O)NCC(=O)O)[C@@H](C)O)[C@@H](C)O [Example 46] | 3.7 nM
CC[C@H](C)[C@H](NC(=O)[C@@H]1CCCN1C(=O)[C@H](CC(N)=O)NC(=O)[C@H](CCC(N)=O)NC(=O)[C@H](CCC(=O)O)NC(=O)[C@H](C)N)C(=O)N[C@@H](Cc1ccc(O)cc1)C(=O)N[C@@H](Cc1c[nH]c2ccccc12)C(=O)N[C@@H](C)C(=O)N[C@@H](CCCNC(=N)N)C(=O)N[C@@H](Cc1ccc(O)cc1)C(=O)N[C@@H](C)C(=O)N[C@@H](CC(=O)O)C(=O)N[C@@H](Cc1c[nH]c2ccccc12)C(=O)N[C@@H](CC(C)C)C(=O)N[C@@H](Cc1ccccc1)C(=O)N[C@H](C(=O)N[C@H](C(=O)N1CCC[C@H]1C(=O)N[C@@H](CC(C)C)C(=O)N[C@@H](CC(C)C)C(=O)N[C@@H](CC(C)C)C(=O)N[C@@H](CC(C)C)C(=O)N[C@@H](CC(=O)O)C(=O)N[C@@H](CC(C)C)C(=O)N[C@@H](C)C(=O)N[C@@H](CC(C)C)C(=O)N[C@@H](CC(C)C)C(=O)N[C@H](C(=O)N[C@@H](CC(=O)O)C(=O)N[C@@H](C)C(=O)N[C@@H](CC(=O)O)C(=O)N[C@@H](CCC(=O)O)C(=O)N[C@@H](CSS[C@H](C)COC(=O)N1CCC[C@@H](c2ccc(-n3cc4cccc(C(N)=O)c4n3)cc2)C1)C(=O)NCC(=O)O)C(C)C)[C@@H](C)O)[C@@H](C)O [Example 47] (H-AEQNPIYWARYADWLFTTPLLLLDLALLVDADEC(X26)G-OH; N-terminus and C-terminus assumed) | 2.4 nM
